Measured values reported in US8728517B2, “Pharmaceutical compositions of entacapone co-micronized with sugar alcohols” (Wockhardt Ltd., priority 2008, dated 2014).

Experiment: Percent drug release of poorly soluble drugs combined with sugar alcohols
Format: physicochemical
Details: for effect on percent release: with sugar alcohols like mannitol or sorbitol, as physical mixture or complex

| effect on percent release | effect on percent drug release (co-micronized with sugar alcohols vs formulation not co-micronized with a sugar alcohol) | SMILES |
| --- | --- | --- |
| does not make any significant difference |  | O=C1CCc2ccc(OCCCCN3CCN(c4cccc(Cl)c4Cl)CC3)cc2N1 [aripiprazole] |
|  | significant increase | CCN(CC)C(=O)/C(C#N)=C/c1cc(O)c(O)c([N+](=O)[O-])c1 [entacapone, (E)-2-cyano-3-(3,4-dihydroxy-5-nitrophenyl)-N,N-diethyl-2-propenamide] |
| does not make any significant difference |  | CCCCC1=NC2(CCCC2)C(=O)N1Cc1ccc(-c2ccccc2-c2nnn[nH]2)cc1 [irbesartan] |
